Source: patent publication US20100003217A1, “Compounds and Pharmaceutical Compositions for the Treatment of Viral Infections” (priority 2008, published 2010)
Where two headings read alike, the source gives them in different places.

How the values were obtained:
Format in all cases: in vivo, male Sprague-Dawley rats
[1] = Excretion of administered dose in rat urine and feces; conditions: IV; 24 h after [14C]Compound 1
[2] = Metabolite profile in rat liver; conditions: for Percent of Dose, Liver 24 h: after [14C]Compound 1; for concentration at 2 h / concentration at 6 h / concentration at 24 h: male, Sprague-Dawley, rat, liver
Protocol: Homogenates were prepared on dry ice in 70% methanol-30% water containing 20 mM EDTA and 20 mM EGTA (about 1× (w/v) weight of the liver) and were stored frozen. Pooled liver samples were prepared for all groups by combining a fixed percentage of the total weight of each individual animal sample homogenate for each group. Each pooled liver homogenate (3.77-5.02 g) was placed in a 50-mL polypropylene centrifuge tube and 16.0 mL of methanol:water (70:30) was added. The sample was vortexed for one minute, and then centrifuged at 11200×g for 20 minutes. The supernatant was transferred to a tube and total volume was measured. The extraction procedure was repeated three additional times. Radioactivity of each supernatant was determined by LSC of duplicate aliquots (100 μL each) for extraction recovery. Subsamples of all four extracts from each sample were taken for proportionate pooling. For Group 1, the subsamples were pooled before concentration and, for Group 2, each subsample was concentrated separately and then pooled due to the larger volumes involved. Each extract was completely dried or reduced to approximately 100 μL. Reconstitution was accomplished with methanol (20 μL) and sufficient volume of the aqueous mobile phase of HPLC method 2 such that the total volume of each reconstituted sample was 500 μL. Duplicate aliquots of the reconstituted samples were analyzed by LSC. Each sample was analyzed by HPLC method 2.
(§1) Percent of the administered dose (% AD) for parent drug and each metabolite at each collection period=(% of the total radioactivity in the sample attributed to the metabolite)*(total radioactivity expressed as % of the administered dose, recovered during the corresponding collection period).
Microgram equivalents/g for parent drug or metabolite at each collection period (% radioactivity for each metabolite)*(total μg equivalents/g during the corresponding collection period).
Liver homogenates were pooled for each time point for both dose groups by proportional mixing according to the weight of the samples from individual animals. The pooled samples were extracted and prepared for HPLC analysis as described above. The abundance of metabolites was determined as a % of the administered dose and as μg equivalent/g. The data are presented in Table 54, Table 55, Table 56 and Table 57, respectively. Metabolites R^1, R^8 and R^9 were characterized based on retention time.

[3] = Excretion of administered dose in rat urine and feces; conditions: for Percent of Dose, Total (urine, feces and liver): Oral, 24 h after [14C]Compound 1; for Total excretion (urine + feces), % of the administered dose: rat
Protocol: Isotopically diluted [^14C]-Compound 1 was administered intravenously to male Sprague-Dawley rats at 50 mg/kg or by oral gavage at 100 mg/kg.
as §1
The urine and feces of each animal were analyzed for radiolabel content.

[4] = group 1 (IV dose) pooled liver, 2 h
[5] = group 1 (IV dose) pooled liver, 2 h (Table 56)
[6] = group 1 (IV dose) pooled liver, 6 h
[7] = group 1 (IV dose) pooled liver, 6 h (Table 56)
[8] = group 1 (IV dose) pooled liver, 24 h
[9] = group 1 (IV dose) pooled liver, 24 h (Table 56)
[10] = group 2 (PO dose) pooled liver, 2 h
[11] = group 2 (PO dose) pooled liver, 2 h (Table 57)
[12] = group 2 (PO dose) pooled liver, 6 h
[13] = group 2 (PO dose) pooled liver, 6 h (Table 57)
[14] = group 2 (PO dose) pooled liver, 24 h
[15] = group 2 (PO dose) pooled liver, 24 h (Table 57)
[16] = iv, 50 mg/kg, group 1 (IV dose) pooled liver, 2 h, read-out: liver concentration as μg equivalents/g
[17] = iv, 50 mg/kg, group 1 (IV dose) pooled liver, 6 h, read-out: liver concentration as μg equivalents/g
[18] = iv, 50 mg/kg, group 1 (IV dose) pooled liver, 24 h, read-out: liver concentration as μg equivalents/g
[19] = po, 100 mg/kg, group 2 (PO dose) pooled liver, 2 h, read-out: liver concentration as μg equivalents/g
[20] = po, 100 mg/kg, group 2 (PO dose) pooled liver, 6 h, read-out: liver concentration as μg equivalents/g
[21] = po, 100 mg/kg, group 2 (PO dose) pooled liver, 24 h, read-out: liver concentration as μg equivalents/g
[22] = rat liver, IV dose, 2, 6 and 24 h
[23] = rat liver, PO dose, 2, 6 and 24 h
[24] = rat liver, IV dose, 2 h (Group 1A)
[25] = rat liver, IV dose, 6 h (Group 1B)

| Percent of Dose, Total (urine, feces and liver) [1] | Percent of Dose, Liver 24 h ([2]; IV) | Percent of Dose, Liver 24 h ([2]; Oral) | % AD [2, 4] | % HPLC (percent of HPLC peak area in the sample extract) [2, 4] | % HPLC (percent of HPLC peak area in the sample extract) [2, 5] | % AD [2, 6] | % HPLC (percent of HPLC peak area in the sample extract) [2, 6] | % HPLC (percent of HPLC peak area in the sample extract) [2, 7] | % AD [2, 8] | % HPLC (percent of HPLC peak area in the sample extract) [2, 8] | % HPLC (percent of HPLC peak area in the sample extract) [2, 9] | % AD [2, 10] | concentration at 2 h [2, 16] | concentration at 6 h [2, 17] | concentration at 24 h [2, 18] | % of the total radioactivity in liver [2, 22] | % of the total radioactivity in liver [2, 23] | liver metabolite, % of the administered dose [2, 24] | liver metabolite, % of the administered dose [2, 25] | Compound | other results |
| --- | --- | --- | --- | --- | --- | --- | --- | --- | --- | --- | --- | --- | --- | --- | --- | --- | --- | --- | --- | --- | --- |
| 34.5% of Dose | 0.42% of Dose | 0.09% of Dose | 2.14 % AD | 13.8% | 13.8% | 1.48 % AD | 14.6% | 14.6% | 0.42 % AD | 23.9% | 23.9% | 0.15 % AD | 28400 ng/g | 20000 ng/g | 5560 ng/g | 14-24% | 54-85% | – | – | C[C@@]1(O)[C@H](O)[C@@H](CO)O[C@H]1n1cnc2c(=O)[nH]c(N)nc21 [2′-C-methyl guanosine, 9-(2-C-methyl-β-D-ribofuranosyl)guanine, reference compound] | % HPLC (percent of HPLC peak area in the sample extract) [2, 10]: 77.5%; % HPLC (percent of HPLC peak area in the sample extract) [2, 11]: 77.5%; % AD [2, 12]: 0.32 % AD; % HPLC (percent of HPLC peak area in the sample extract) [2, 12]: 85.0%; % HPLC (percent of HPLC peak area in the sample extract) [2, 13]: 85.0%; % AD [2, 14]: 0.09 % AD; % HPLC (percent of HPLC peak area in the sample extract) [2, 14]: 53.9%; % HPLC (percent of HPLC peak area in the sample extract) [2, 15]: 53.9%; concentration at 2 h [2, 19]: 3940 ng/g; concentration at 6 h [2, 20]: 8760 ng/g; concentration at 24 h [2, 21]: 2200 ng/g; Total excretion (% AD), total (urine + feces) ([3]; IV (1C)): 34.0 % AD; Percent of Dose, Total (urine, feces and liver) [3]: 28.3% of Dose; Total excretion (% AD), total (urine + feces) ([3]; PO (2C), urine data estimated): 28.2 % AD; Total excretion (urine + feces), % of the administered dose ([3]; IV dose): 34.0%; Total excretion (urine + feces), % of the administered dose ([3]; PO dose): 28.2% |
| 1.05% of Dose | 1.05% of Dose | – | 9.73 % AD | 62.6% | 62.6% | 6.39 % AD | 63.1% | 63.1% | 1.05 % AD | 59.9% | 59.9% | – | 129000 ng/g | 86200 ng/g | 13900 ng/g | 60-63% | not detected | 9.7 % AD | 6.4 % AD | C[C@@]1(O)[C@H](O)[C@@H](COP(=O)(O)O)O[C@H]1n1cnc2c(=O)[nH]c(N)nc21 [Compound 5, [(2R)-2-methyl-β-D-ribofuranosyl]guanine 5′-monophosphate] | liver metabolite, % of the administered dose ([2]; rat liver, IV dose, 24 h): 1.1 % AD |
| 0.29% of Dose | 0.29% of Dose | 0.08% of Dose | 3.35 % AD | 21.6% | 21.6% | 2.04 % AD | 20.1% | 20.1% | 0.29 % AD | 16.2% | 16.2% | 0.04 % AD | 44400 ng/g | 27500 ng/g | 3770 ng/g | 16-22% | 15-46% | 3.4 % AD | 2.0 % AD | C[C@@]1(O)[C@H](O)[C@@H](COP(=O)(O)OP(=O)(O)O)O[C@H]1n1cnc2c(=O)[nH]c(N)nc21 [Compound 6, [(2R)-2-methyl-β-D-ribofuranosyl]guanine 5′-diphosphate] | % HPLC (percent of HPLC peak area in the sample extract) [2, 10]: 22.6%; % HPLC (percent of HPLC peak area in the sample extract) [2, 11]: 22.6%; % AD [2, 12]: 0.06 % AD; % HPLC (percent of HPLC peak area in the sample extract) [2, 12]: 15.0%; % HPLC (percent of HPLC peak area in the sample extract) [2, 13]: 15.0%; % AD [2, 14]: 0.08 % AD; % HPLC (percent of HPLC peak area in the sample extract) [2, 14]: 46.1%; % HPLC (percent of HPLC peak area in the sample extract) [2, 15]: 46.1%; concentration at 2 h [2, 19]: 1150 ng/g; concentration at 6 h [2, 20]: 1550 ng/g; concentration at 24 h [2, 21]: 1880 ng/g; concentration at 2 h ([2]; po, 100 mg/kg, rat liver, PO dose, 2 h, read-out: liver metabolite concentration): 1100 ng/g; concentration at 6 h ([2]; po, 100 mg/kg, rat liver, PO dose, 6 h, read-out: liver metabolite concentration): 1600 ng/g; concentration at 24 h ([2]; po, 100 mg/kg, rat liver, PO dose, 24 h, read-out: liver metabolite concentration): 1900 ng/g; liver metabolite, % of the administered dose ([2]; rat liver, IV dose, 24 h): 0.29 % AD; liver metabolite, % of the administered dose ([2]; rat liver, IV dose, 24 h, listed as diphosphate): 0.3 % AD; liver metabolite, % of the administered dose ([2]; rat liver, PO dose, 2 h): 0.04 % AD; liver metabolite, % of the administered dose ([2]; rat liver, PO dose, 6 h): 0.06 % AD; liver metabolite, % of the administered dose ([2]; rat liver, PO dose, 24 h): 0.08 % AD; Percent of Dose, Total (urine, feces and liver) [3]: 0.08% of Dose |
| – | – | – | 0.05 % AD | 0.29% | 0.29% | 0.04 % AD | 0.35% | 0.35% | – | – | – | – | 600 ng/g | 480 ng/g | – | – | – | 0.05 % AD | 0.04 % AD | C[C@@]1(O)[C@H](O)[C@@H](COP(=O)(O)OP(=O)(O)OP(=O)(O)O)O[C@H]1n1cnc2c(=O)[nH]c(N)nc21 [Compound 7, [(2R)-2-methyl-β-D-ribofuranosyl]guanine 5′-triphosphate] | concentration at 2 h ([2]; iv, 50 mg/kg, rat liver, IV dose, 2 h (Group 1A), read-out: liver metabolite concentration): 600 ng/g; concentration at 6 h ([2]; iv, 50 mg/kg, rat liver, IV dose, 6 h (Group 1B), read-out: liver metabolite concentration): 480 ng/g |
